Measured values published in US9884801B2, “Compounds from antrodia camphorata, method for preparing the same and use thereof” (ONENESS BIOTECH CO.,LTD., priority 2014, dated 2018).
Converted amounts (≈) assume the structure as drawn. Read-outs that look alike come from different tables or passages of the source.

Assays:
Type in all cases: cell-based
PC3 (Prostate) = experiment: SRB anti-proliferation assay, PC3; conditions: PC3, 48 hours
Description: (§1) Various cell lines (5×10^3 cells/well) were sub-cultured onto 96-well plates and starved with serum-free medium for 48 h. Then cells were incubated in medium with 10% FBS in the absence or presence of various concentrations of AC006, AC007, AC009, and AC012 (0.1, 0.3, 1, 3, 10, and 30 μg/ml) for 48 hours. After treatment, the medium was discarded firstly. […]. In order to fix the adherent cells, 100 μl of trichloroacetic acid (10% (w/v)) were adding to each well and incubating at 4° C. for 1 hour. Then the plates were then washed with deionized water and dried in the air. Each well were added with 50 μl of Sulforhodamine B (SRB) solution (0.4% w/v in 1% acetic acid) and incubated for 5 min at room temperature. To remove unbound SRB in the plates, the plates were washed with 1% acetic acid and then air dried. The residual bound SRB was solubilized with 100 μl of 10 mM Tris base buffer (pH 10.5), and then read using a micro titer plate reader at 495 nm.

Huh-7 (Liver) = experiment: SRB anti-proliferation assay, Huh-7; conditions: Homo sapiens; for IC50: Huh-7, 48 hours; for inhibition at 0.3 µg/mL: Huh-7, in 0.3 μg/ml
Description: as §1

Sk-Hep-1 (Liver) = experiment: SRB anti-proliferation assay, Sk-Hep-1; conditions: Homo sapiens, SK-HEP1; Sk-Hep-1, 48 hours
Description: as §1

B16F10 (Melanoma) = experiment: SRB anti-proliferation assay, B16F10; conditions: Mus musculus, B16-F10; B16F10, 48 hours
Description: as §1

A549 (Lung) = experiment: SRB anti-proliferation assay, A549; conditions: Homo sapiens; for IC50: A549, 48 hours; for inhibition at 10 µg/mL: A549, in 10 μg/ml
Description: as §1

U251 (Brain, Glioma) = experiment: SRB anti-proliferation assay, U251; conditions: Homo sapiens, U-251; for IC50: U251, 48 hours
Description: as §1

U87 (Brain, Glioma) = experiment: SRB anti-proliferation assay, U87; conditions: for IC50: U87, 48 hours
Description: as §1

LN-229 (Brain, Glioma) = experiment: SRB anti-proliferation assay, LN-229; conditions: Homo sapiens; for IC50: LN-229, 48 hours
Description: as §1

DLD-1 (Colorectal) = experiment: SRB anti-proliferation assay, DLD-1; conditions: for inhibition at 10 µg/mL: DLD-1, in 10 μg/ml
Description: as §1

RKO (Colorectal) = experiment: SRB anti-proliferation assay, RKO; conditions: for inhibition at 10 µg/mL: in 10 μg/ml
Description: as §1

SW-480 (Colon rectal) = experiment: SRB anti-proliferation assay, SW-480; conditions: for IC50: SW-480, 48 hours; for inhibition at 10 µg/mL: SW480, SW-480, in 10 μg/ml
Description: as §1

HCT-116 (Colon rectal) = experiment: SRB anti-proliferation assay, HCT-116; conditions: Homo sapiens; for IC50: HCT-116, 48 hours; for inhibition at 0.3 µg/mL: HCT-116, in 0.3 μg/ml
Description: as §1

4T-1 (Breast) = experiment: SRB anti-proliferation assay, 4T-1; conditions: 4T-1, 48 hours
Description: as §1

NST (Colon) = experiment: SRB anti-proliferation assay, NST
Description: as §1

HT-29 (Colon) = experiment: SRB anti-proliferation assay, HT-29; conditions: Homo sapiens; HT-29, 48 hours
Description: as §1

COLO205 (Colon) = experiment: SRB anti-proliferation assay, COLO205; conditions: Homo sapiens, COLO 205; COLO205, 48 hours
Description: as §1

[1] = tested on: Endothelial progenitor cell (EPCs); experiment: SRB assay, EPC cell proliferation; conditions: 48 h, read-out: inhibitory concentrations of 50% EPC cell proliferation (IC50)
Description: as §1, with “Endothelial progenitor” for “Various”, “(EPCs, 5×10^3” for “lines (5×10^3”, “of” for “of AC006, AC007, AC009, and”, “10” for “10,”, “h.” for “hours. After treatment, the medium was discarded firstly.”

EPCs in presence of VEGF = experiment: Matrigel capillary tube formation assay; conditions: 1 μg/ml, EPC, VEGF 20 ng/ml, 16 hr; read-out: inhibit tube formation
Description: Matrigel was added to 15-well-plates (ibidi) in a total volume of 10 μl in each well. Plates were stood at 37° C. for 30 min to form a gel layer. After gel formation, EPCs (5×10^3 cells) treated with or without AC012 (0.1, 0.3, 1 μg/ml) in presence of VEGF (20 ng/ml) were applied to each well, and plates were incubated for at 37° C. 16 hr with 5% CO2. After incubation, the inverted contrast phase microscope (Nikon, Japan) was used for subject observation.

[2] = Homo sapiens, DLD-1, 48 h, read-out: IC50
[3] = Homo sapiens, SW480, 48 h, read-out: IC50

Compound	IC50 (PC3 (Prostate))	IC50 (Huh-7 (Liver))	IC50 (B16F10 (Melanoma))	IC50 (A549 (Lung))	inhibition at 10 µg/mL (A549 (Lung))	IC50 (LN-229 (Brain, Glioma))	inhibition at 0.3 µg/mL (Huh-7 (Liver))	IC50 (DLD-1 (Colorectal); [2])	inhibition at 10 µg/mL (DLD-1 (Colorectal); Homo sapiens)	IC50 (RKO (Colorectal); 48 h, read-out: IC50)	inhibition at 10 µg/mL (RKO (Colorectal))	IC50 (SW-480 (Colon rectal); [3])	inhibition at 10 µg/mL (SW-480 (Colon rectal); Homo sapiens)	IC50 (HCT-116 (Colon rectal))	inhibition at 0.3 µg/mL (HCT-116 (Colon rectal))	other results
COC1=C(OC)[C@H](OC(C)=O)[C@H](C/C=C(\C)CC/C=C(\C)C[C@H](O)C=C(C)C)[C@@H](C)C1=O [AC006]	19.7 µg/mL (≈ 43.9 µM)	0.72 µg/mL (≈ 1.6 µM)	28.7 µg/mL (≈ 64 µM)	> 10 µg/mL	12.2%	> 30 µg/mL										IC50 (Sk-Hep-1 (Liver)): 26.8 µg/mL (≈ 59.7 µM); IC50 (U251 (Brain, Glioma)): > 30 µg/mL; inhibition at 30 µg/mL (U251 (Brain, Glioma); U251, in 30 μg/ml): 22.6%; IC50 (U87 (Brain, Glioma)): > 30 µg/mL; inhibition at 30 µg/mL (U87 (Brain, Glioma); U87, in 30 μg/ml): 11.3%; inhibition at 30 µg/mL (LN-229 (Brain, Glioma); LN-229, in 30 μg/ml): 22.6%
COC1=C(OC)[C@H](O)[C@H](C/C=C(\C)CC/C=C(\C)C/C=C/C(C)(C)O)[C@@H](C)C1=O [AC007-H1]		< 0.3 µg/mL		1.69 µg/mL (≈ 4.16 µM)			85.2%	> 10 µg/mL	16.1%	> 10 µg/mL	33%	> 10 µg/mL	18.2%	< 0.3 µg/mL	59.5%	
COC1=C(OC)[C@H](OC(C)=O)[C@H](C/C=C(\C)CC/C=C(\C)C/C=C/C(C)(C)O)[C@@H](C)C1=O [AC007]	22.1 µg/mL (≈ 49.2 µM)	0.88 µg/mL (≈ 1.96 µM)	23.4 µg/mL (≈ 52.3 µM)	3.57 µg/mL (≈ 7.96 µM)		> 25 µg/mL		19.7 µg/mL (≈ 44 µM)	25.6%	17.6 µg/mL (≈ 39.2 µM)	29.5%	> 10 µg/mL	21.5%	0.93 µg/mL (≈ 2.07 µM)		inhibition at 25 µg/mL (LN-229 (Brain, Glioma); LN-229, in 25 μg/ml): 19.1%; IC50 (4T-1 (Breast)): 24.8 µg/mL (≈ 55.3 µM); IC50 (DLD-1 (Colorectal); DLD-1, 48 hours): > 10 µg/mL; IC50 (RKO (Colorectal); 48 hours): > 10 µg/mL
COC1=C(OC)[C@H](O)[C@H](C/C=C(\C)CC/C=C(\C)CC/C=C(\C)CO)[C@@H](C)C1=O [AC009-H1]		< 0.3 µg/mL		> 10 µg/mL	40.8%		90.6%	> 10 µg/mL	11%	> 10 µg/mL	8.79%	> 10 µg/mL	4.01%	< 0.3 µg/mL	54.4%	
COC1=C(OC)[C@H](OC(C)=O)[C@H](C/C=C(\C)CC/C=C(\C)CC/C=C(\C)CO)[C@@H](C)C1=O [AC009]	15 µg/mL (≈ 33.4 µM)	< 0.3 µg/mL	22.4 µg/mL (≈ 50 µM)	8.08 µg/mL (≈ 18 µM)		19.5 µg/mL (≈ 43.5 µM)	88.2%	14.6 µg/mL (≈ 32.6 µM)	8.75%	15.9 µg/mL (≈ 35.5 µM)	33.2%	18.6 µg/mL (≈ 41.4 µM)	7.98%	2.56 µg/mL (≈ 5.71 µM)		IC50 (DLD-1 (Colorectal); DLD-1, 48 hours): > 10 µg/mL; IC50 (RKO (Colorectal); 48 hours): > 10 µg/mL; IC50 (SW-480 (Colon rectal)): > 10 µg/mL; IC50 (NST (Colon); 48 hours): > 25 µg/mL; inhibition at 25 µg/mL (NST (Colon); in 25 μg/ml): 44.4%; IC50 (HT-29 (Colon)): 33.2 µg/mL (≈ 74.1 µM); IC50 (COLO205 (Colon)): 2.45 µg/mL (≈ 5.46 µM)
COC1=C(OC)[C@H](OC(C)=O)[C@H](C/C=C(\C)CC/C=C(\C)C/C=C/C(C)(C)O)CC1=O [AC011]								> 10 µg/mL	7.57%	> 10 µg/mL	24.1%	> 10 µg/mL	31.6%	2.43 µg/mL (≈ 5.59 µM)		
COC1=C(OC)[C@H](O)[C@H](C/C=C(\C)CC/C=C(\C)CCCC(C)CO)[C@@H](C)C1=O (some centres unmarked) [AC012-H1]		< 0.3 µg/mL		6.4 µg/mL (≈ 15.7 µM)			91.2%	> 10 µg/mL	11.8%	> 10 µg/mL	17.5%	> 10 µg/mL	14.8%	< 0.3 µg/mL	52.7%	
COC1C(=O)C(C)[C@@H](C/C=C(\C)CC/C=C(\C)CCCC(C)CO)[C@@H](O)C1(OC)OC (some centres unmarked) [AC012-H2]								> 10 µg/mL	8.31%	> 10 µg/mL	31.6%	> 10 µg/mL	5.66%	> 10 µg/mL		inhibition at 10 µg/mL (HCT-116 (Colon rectal); HCT-116, in 10 μg/ml): 40.3%
COC1=C(OC)[C@H](OC(C)=O)[C@H](C/C=C(\C)CC/C=C(\C)CCCC(C)CO)[C@@H](C)C1=O (some centres unmarked) [AC012]	11.4 µg/mL (≈ 25.2 µM)	< 0.3 µg/mL	9.16 µg/mL (≈ 20.3 µM)	> 10 µg/mL	49.5%	19.4 µg/mL (≈ 43.2 µM)	78.9%	> 10 µg/mL	20.2%	> 10 µg/mL	34.7%	> 10 µg/mL	9.05%	2.29 µg/mL (≈ 5.08 µM)		IC50 [1]: 29 µg/mL (≈ 64.4 µM); inhibition at 1 µg/mL (EPCs in presence of VEGF): 31.9%; IC50 (Sk-Hep-1 (Liver)): 8.27 µg/mL (≈ 18.4 µM); IC50 (U251 (Brain, Glioma)): 22.7 µg/mL (≈ 50.4 µM); IC50 (U87 (Brain, Glioma)): 18.6 µg/mL (≈ 41.3 µM)
